Results: US20240140895A1, “NOVEL AROMATIC MOLECULES” (XENIOPRO GmbH, priority 2018, published 2024)

Tested on: Notch signaling (human Notch1 receptor, hNotch1ΔE)
Test: Notch reporter assay (dual luciferase, HeLa cells transfected with hNotch1ΔE)
Assay type: cell-based
Settings: 10 μM
Text: The activation level of Notch signaling can be quantified in vitro reliably by measuring the expression levels of Notch specific target genes. This can be accomplished by the quantification of corresponding mRNA or protein of a particular Notch target gene. Alternatively, cells can be genetically modified to carry a luciferase gene as an artificial Notch target gene, which is expressed in dependence of Notch activity. In this setting, Notch signaling levels can be quantified by measuring the luciferase-derived bioluminescence values.
An according Notch-reporter assay, i.e. a luciferase-based luminescence readout, was used here to quantify the ability of the claimed compounds to augment Notch signaling in a cellular system. […] After 24 hours of transfection, the transfected cells were carefully detached from the dish using 0.5 mM EDTA in PBS and seeded into 96-well plates suitable for luminescence readouts (CORNING, #3610) at 10,000 cells per well. […] Directly after the lysis, first the Firefly and then the Renilla luciferase values were measured consecutively from the same well with a luminescence reader immediately after applying 15 μL per well each of the corresponding enzyme substrates needed to create the luminescence signals (Promega, Dual-Luciferase® Reporter Assay System, #E1910). […]

SMILES: Oc1ccc(C=Cc2cc(O)cc(O)c2)cc1 [RES, resveratrol, reference compound]
- Activity Range: weighted arithmetic mean (AVEw) of double-normalized Notch-reporter luminescence, relative to DMSO basis level 1.0: 1.9 ± 0.5
